Test results reported in patent US9944721B2, “Polysialic acid and use for treatment of neurodegenerative and neuroinflammatory diseases” (RHEINISCHE FRIEDRICH-WILHELMS UNIVERSITÄT BONN, priority 2013, dated 2018).

Columns and labels:
[1] = Biotinylated PSA-20 in serum and brain after intraperitoneal application (ELISA); format: in vivo, mice
Description: First, PSA-20 was conjugated with biotin and a sensitive ELISA to detect biotinylated PSA-20 was established. The PSA-20 was coupled with a biotin molecule at the sixth carbon atom of sialic acid at the terminus of the PSA-20 chains. Therefore, the terminus of PSA-20 was oxidized to an aldehyde by sodium metaperiodate. Afterwards, hydrazide coupled biotin was conjugated at room temperature to the aldehyde group to form a hydrazone bond. Purification was carried out with a desalting column (HiTrap Desalting Column GE Healthcare).
Biotin-conjugated PSA-20 (10 μg per g body weight) was applied in adult mice by intraperitoneal application. An ELISA method was used to detect biotinylated PSA-20 in the serum and brain. For the ELISA, NeutrAvidin coated pre-blocked plates (Thermo Scientific) were washed three times with PBST (PBS+0.05% Tween-20). After washing, plasma and brain homogenate as well as defined concentrations of biotinylated PSA-20 as standard were applied for 1 h at room temperature. Plates were washed three times and were incubated with a monoclonal antibody directed against oligosialic acids (rat-anti-mouse CD56, BD Pharmingen #556325) over night at 4° C. The following day the plate were washed three times and incubated with goat anti-mouse immunoglobulin conjugated with peroxidase-HRP (Jackson ImmunoResearch). Then, plates were washed and incubated with 100 μl TMB-reagent for 30 min at room temperature. The reaction was stopped by addition of 100 μl 1N HCl and the signal was detected with an ELISA reader.
Serum and brain tissue of one mouse was analyzed before application and at 0.5, 1, 2, 4 and 8 hours after application. The highest PSA-20 level was detected in the serum at 0.5 hours and in the brain at 2 hours. The half-time of PSA-20 in the serum and in the brain was estimated to be between 2 and 3 hours. The bioavailability of PSA-20 in the brain in relation to the serum was estimated to be between 1 and 3%. […] As can be taken from the FIG. 10C, PSA-20 was detected in the serum and the brain. […]

[2] = test system: co-culture of human iPSdM1 microglia and iPS cell-derived neurons with amyloid-β1-42; test: Microglia-neuron co-culture with fibrillary amyloid-β1-42, 48 hours (neurite length); format: cell-based; settings: 48 hours co-culture with microglia and 1 μM fibrillary amyloid-β1-42; without PSA-20 0.64+/−0.03; FIG. 4G
Description: Human induced pluripotent stem cell derived microglia (iPSdM) were obtained from iPS cells. iPSdM-1 line was used in this study generated from the iLB-C-35m-r1 clone (Bonn). iPSdM-1 (here named microglia or microglial cells) were culture in N2-medium consisting of DMEM/F12 culture medium (Gibco) supplemented with 1% N2 (Invitrogen), 0.48 mM L-glutamine (Gibco) and 100 μg/ml penicillin/streptomycin (Gibco). Cells were cultured with high density and split 1:5. After splitting, cells recovered and attached again to the new dishes.
Human induced pluripotent stem (iPS) cells (Foreskin-1, WiCell) were used for generation of primitive neural stem cell (pNSC) and their differentiation into neurons according to a modified protocol, which was used to obtain primitive neural precursors from human embryonic stem cells. Briefly, iPS cells were cultured on feeder cells to form small colonies. […]
Cells were fixed for 15 minutes with 4% paraformaldehyde (PFA), blocked and permeabilized for 60 minutes with a solution that contained bovine serum albumin (10% BSA) and normal goat serum (5% nGS) and 0.1% TritonX-100. […] Ten images were randomly collected from each experimental setup by confocal laser scanning microscopy (Fluoview 1000, Olympus) and total lengths of neuronal branches from β-tubulin-III stained neurites was determined done by the NIH ImageJ/NeuronJ software.

human microglia = test: Microglial phagocytosis of fluorescently labeled neural debris; format: cell-based; settings: 1 hour pre-incubation, untreated 32%+/−0.02
Description: The human microglia were challenged with fluorescently labeled neural debris and the uptake of the debris into the cells was determined by confocal microscopy and 3D-reconstruction.
To receive debris, neural stem cells were incubated with 40 nM okadaic acid (Sigma) for 24 hours. Then, cellular debris was collected and centrifuged. Debris was washed with PBS and stained with “Dil Derivatives for Long-Term Cellular Labeling” Molecular Probes (Invitrogen) according to the supplier's manual. Microglial cells were pre-incubated for 1 hour with concentration of 0.15 μM, 0.5 μM or 1.5 μM PSA-20 followed by 1 hour of incubation with 5 μg/ml prestained neural debris. Cells were fixed and incubated with an anti-iba1 antibody (Wako, Japan) followed by a secondary Alexa488-conjugated antibody (Molecular probes). For analysis images were randomly scanned and 3D-reconstructions were obtained by a confocal laser scanning microscope (Fluoview 1000, Olympus). To determine the ratio of cells having ingested fluorescently labeled material, six images per experiment group were obtained and all cells on the images were quantified using Image J software (NIH).

[3] = biotin-conjugated PSA-20, 10 μg per g body weight i.p., adult mice

## poly-(α(2→8)Neu5Ac)n [PSA-20]
[1]; after systemic application
  passage of the blood-brain barrier: passed the blood-brain barrier
[1]; [3]
  time of peak concentration in the brain: 2 h
  time of peak concentration in the serum: 0.5 h
[2]
  relative neurite length: 0.82+/−0.03
Human microglia; 0.5 μM
  percentage of microglia having ingested neural debris: 25%+/−0.02
Human microglia; 1.5 μM
  percentage of microglia having ingested neural debris: 22%+/−0.01
